From patent US20240325389A1, “NEW THERAPEUTIC TARGETS WITH AN ANTI-INFLAMMATORY AND ANTI-INTERFERON EFFECT” (priority 2020, published 2024)
Where two headings read alike, the source gives them in different places.

Legend:
[1] = tested on: peripheral blood mononuclear cells (PBMCs) of healthy donors; test: Cytokine and interferon secretion by PBMCs after TLR7/8 (R848) stimulation, LegendPlex; format: cell-based, human; settings: for production and secretion of pro-inflammatory cytokines, such as IL-6, IL-1p and the interferons induced by the TLR7/8 stimulation / production of TNFα induced by the TLR7/8 stimulation: human PBMCs incubated with inhibitor before R848
[2] = tested on: neurones infected by the prions; format: cell-based
DBA/1J mice = settings: for total average arthritis scores (histopathology): with respect to the control vehicle
[3] = tested on: 1C11^5-HT serotonergic neurons; test: mRNA encoding TNFα, IL6 and MCP1 in LPS-activated 1C11^5-HT neurons, RT-qPCR; format: cell-based, Mus; settings: inhibitor 1 h before LPS 100 ng/ml
[4] = tested on: peripheral blood mononuclear cells (PBMCs); test: Interferon production by cGAMP-stimulated PBMCs, STING-37 reporter
[5] = tested on: peripheral blood mononuclear cells (PBMCs) of healthy donors; test: Cytokine and interferon secretion by PBMCs in response to HIV, LegendPlex; format: cell-based, human; settings: inhibitor 1 h before AT-2-inactivated HIV-1MN, 24 h
[6] = tested on: monocytes of healthy donors; test: Intracellular TNFα production in monocytes after TLR7/8 (R848) stimulation, flow cytometry; format: cell-based, human; settings: for production of inflammatory cytokines: PBMCs and purified monocytes of healthy donors, Toll-like receptor 7/8 (R848); for intracellular production of inflammatory cytokines (TNFα): monocytes, inhibitor 1 h before R848 5 μg/ml (TLR7/8), 16 h
[7] = tested on: monocytes of healthy donors; test: Intracellular TNFα production in monocytes after TLR2 (LTA) stimulation, flow cytometry; format: cell-based, human; settings: inhibitor 1 h before LTA 1 μg/ml (TLR2), 16 h
[8] = tested on: plasmacytoid dendritic cells (pDC) of healthy donors; test: Intracellular IFNα and TNFα in plasmacytoid dendritic cells in response to HIV, flow cytometry; format: cell-based, human; settings: inhibitor 1 h before AT-2-inactivated HIV-1MN, 16 h
[9] = tested on: peripheral blood mononuclear cells (PBMCs) of healthy donors; test: Interferons secreted by R848-stimulated PBMCs, STING-37 reporter cell line; format: cell-based, human
THP1-Dual [10] = test: mRNA encoding TNFα, IL6 and MCP1 in LPS-activated THP1-Dual monocytes, RT-qPCR; format: cell-based, human; settings: inhibitor 1 h before LPS 100 ng/ml
[11] = tested on: monocytes of healthy donors; test: Intracellular IL-1β and TNFα in monocytes after inflammasome activation by uric acid crystals (MSU, gout model), flow cytometry; format: cell-based, human; settings: for production of inflammatory cytokines: monocytes of healthy donors, activation of the inflammasome by uric acid crystals
[12] = tested on: peripheral blood mononuclear cells (PBMCs) of healthy donors; test: Test for toxicity of the compounds on PBMCs (CellTiter-Glo, ATP); format: cell-based, human; settings: 24 h of cell culture
Protocol: Test for toxicity of the compounds on the peripheral blood mononuclear cells (PBMCs).
After 24 h of cell culture, the cell viability was determined using the CellTiter-Glo reagent (Promega), which evaluates the amount of ATP by luminescence using the EnSpire.

[13] = tested on: monocytes of healthy donors; test: Intracellular TNFα production in monocytes after TLR4 (LPS) stimulation, flow cytometry; format: cell-based, human; settings: for production of inflammatory cytokines: PBMCs and purified monocytes of healthy donors, Toll-like receptors 2/4 (lipoteichoic acid/LPS)
[14] = tested on: 1C11 neuroectodermal stem cells; test: mRNA encoding TNFα, IL6 and MCP1 in LPS-activated 1C11 stem cells, RT-qPCR; format: cell-based, Mus; settings: inhibitor 1 h before LPS 100 ng/ml
T lymphocytes = test: Activation of T lymphocytes by CD3/CD28 beads (CD69), flow cytometry; format: cell-based, human; settings: inhibitor 1 h at 1 and 5 μM, then CD3/CD28 beads 3 days
[15] = tested on: monocytes of patients suffering from juvenile idiopathic arthritis; test: Spontaneous TNFα production by monocytes of juvenile idiopathic arthritis patients, SIMOA; format: cell-based, human; settings: monocytes incubated with inhibitor for 24 h, no stimulation
[16] = tested on: peripheral blood mononuclear cells (PBMCs) of healthy donors; test: Cytokine and interferon secretion by PBMCs after TLR4 (LPS) stimulation, LegendPlex; format: cell-based, human; settings: inhibitor 1 h before LPS 100 ng/ml (TLR4), 24 h
B lymphocytes = test: Activation of B lymphocytes by CpG-A (CD69), flow cytometry; format: cell-based, human; settings: inhibitor 1 h at 1 μM, then CpG-A 1 μg/ml (TLR9) 24 h
HEK293 = test: Interferon production by cGAMP-stimulated HEK293 non-immune cells (STING-37), luciferase; settings: inhibitor at 1 μM, cGAMP 3 μg/ml, 24 h
THP1-Dual [17] = test: Interferon response of cGAMP-stimulated THP1-Dual cells, luciferase
[18] = 10 mg/kg daily oral, terminal plasma, ELISA
[19] = cGAMP stimulation, CellTiter Glo
[20] = monocytes, inhibitor 1 h before MSU 50 μg/ml, 16 h

Cc1cncc2cccc(S(=O)(=O)N3CCCNCC3C)c12 (centres unmarked) [formula (VIII), dimethylfasudil]
production and secretion of pro-inflammatory cytokines, such as IL-6, IL-1p and the interferons induced by the TLR7/8 stimulation [1]: inhibits
production of TNFα induced by the TLR7/8 stimulation [1]: inhibits
level of TNFα in the culture medium [2]: re-establishes

C[C@]12C=CC(=O)C=C1CC[C@@H]1[C@@H]2[C@@H](O)C[C@@]2(C)[C@H]1CC[C@]2(O)C(=O)CO [prednisolone, reference compound]
reduction in the (overall) severity of the disease at the end of the study (DBA/1J mice; 10 mg/kg daily oral): 95%
decrease in plasma IFNγ (DBA/1J mice; [18]): 49%
decrease in plasma TNFα (DBA/1J mice; [18]): 54%
decrease in terminal plasma IL-6 (DBA/1J mice; [18]): 70%
total average arthritis scores (histopathology) (DBA/1J mice; 10 mg/kg daily oral): lowest

O=C(Nc1cccc(Nc2ncc(Br)c(NCCc3c[nH]cn3)n2)c1)N1CCCC1 [BX912]
transcription of the genes encoding TNFα, IL6 and MCP1 induced by LPS [3]: does not block
concentration from which the production of interferons (IFN) induced by cGAMP is blocked, according to a dosage effect ([4]; PBMCs, inhibitor 1 h before cGAMP 3 μg/ml, 24 h): ≥ 1 µM
viability of the PBMCs [4, 19]: without affecting the viability
secretion of the inflammatory cytokines (IL-6, IL-1β, TNFα, P10) and the interferons (IFNα2, IFNβ, IFN11) [5]: inhibits
secretion of the inflammatory cytokines (IL-6, IL-1β, TNFα, IP10, GM-CSF, IL-10) and the interferons (IFN11, IFN12/3, IFNβ, IFNg) ([1]; PBMCs, inhibitor 1 h before R848 5 μg/ml (TLR7/8), 24 h): inhibits
production of inflammatory cytokines [6]: capable of inhibiting
intracellular production of inflammatory cytokines (TNFα) [6]: inhibits, according to a dosage effect
production of inflammatory cytokines (TNFα) [7]: inhibits, according to a dosage effect
intracellular production of interferon IFNα [8]: inhibits
production of TNFα [8]: inhibits
secretion of interferons ([9]; curative: inhibitor 1 h after R848 (TLR7/8) stimulation, FIG. 15C): blocking
secretion of interferons ([9]; inhibitor during the R848 (TLR7/8) stimulation, FIG. 15B): blocking
secretion of interferons ([9]; preventive: inhibitor 1 h before R848 (TLR7/8) stimulation, FIG. 15A): blocking
concentration from which the transcription of the gene encoding TNFα, IL6 and MCP1 induced by LPS is reduced, according to a dosage effect (THP1-Dual [10]): ≥ 0.5 µM
production of inflammatory cytokines [11]: capable of inhibiting
intracellular production of IL-1β [11, 20]: inhibits
production of TNFα [11, 20]: inhibits
toxicity on the peripheral blood mononuclear cells (PBMCs) ([12]; PBMCs infected with HIV): no toxicity
toxicity on the peripheral blood mononuclear cells (PBMCs) ([12]; stimulation of the TLR4 receptors): no toxicity
toxicity on the immune cells (PBMCs) ([12]; stimulation of the TLR7/8 receptors): no toxicity
production of inflammatory cytokines [13]: capable of inhibiting
production of inflammatory cytokines (TNFα) ([13]; monocytes, inhibitor 1 h before LPS 100 ng/ml (TLR4), 16 h): inhibits, according to a dosage effect
effect on progression and severity of the disease (DBA/1J mice; 0.5 mg/kg daily oral (group 3)): no ameliorative effect
total average arthritis scores (histopathology) (DBA/1J mice; 0.5 mg/kg daily oral (group 3)): slight reductions
rate of progression of the disease (DBA/1J mice; 2 mg/kg daily oral (group 4)): significant reduction
reduction in the (overall) severity of the disease at the end of the study (DBA/1J mice; 2 mg/kg daily oral (group 4)): 56%
reduction in the (overall) severity of the disease at the end of the study (DBA/1J mice; 10 mg/kg daily oral): 82%
progression of the disease (DBA/1J mice; 10 mg/kg daily oral (group 5)): stopped
reduction in the terminal plasma levels of IL-1i (DBA/1J mice; 10 mg/kg daily oral (group 5), ELISA): 37%
decrease in terminal plasma IL-6 (DBA/1J mice; [18]): 62%
rate of progression of the disease and severity of the disease (DBA/1J mice; daily oral, 0.5, 2 and 10 mg/kg): dose-dependent reduction
transcription of the genes encoding TNFα, IL6 and MCP1 induced by LPS [14]: does not block
expression of the CD69 marker at the surface of the T lymphocytes (T lymphocytes): inhibits, according to a dosage effect
viability of the T lymphocytes (T lymphocytes): without affecting the viability
spontaneous production of TNFα [15]: inhibits
secretion of the inflammatory cytokines (IL-6, IL-1β, TNFα, GM-CSF, IL-10) and the interferons (IFNI⅔, IFNβ, IFNg) [16]: inhibits
expression of the CD69 marker at the surface of the B lymphocytes (B lymphocytes): inhibits, according to a dosage effect
viability of the B lymphocytes (B lymphocytes): without affecting the viability
production of interferon induced by the STING ligand (HEK293): does not block
concentration from which the production of interferons (IFN) induced by cGAMP is blocked, according to a dosage effect (THP1-Dual [17]; THP1-Dual, inhibitor 1 h before cGAMP 3 μg/ml, 24 h): ≥ 1 µM
viability of the THP1-Dual (THP1-Dual [17]; [19]): without affecting the viability

C[C@@H](N)[C@H]1CC[C@H](C(=O)Nc2ccncc2)CC1 [Y27632]
production and secretion of pro-inflammatory cytokines, such as IL-6, IL-1p and the interferons induced by the TLR7/8 stimulation [1]: inhibits
production of TNFα induced by the TLR7/8 stimulation [1]: inhibits
production of inflammatory cytokines [6]: capable of inhibiting
intracellular production of inflammatory cytokines (TNFα) [6]: inhibits, according to a dosage effect
production of inflammatory cytokines [11]: capable of inhibiting
production of inflammatory cytokines [13]: capable of inhibiting
level of TNFα in the culture medium [2]: re-establishes
